This passage reports Potency results from ChEMBL document CHEMBL1122453, “Structure-activity relationships in the antiinflammatory steroids: a pattern-recognition approach” (1983).

The first test is filed under the species Rattus norvegicus. Kind of test: Anti-inflammatory effect in rat granuloma assay, activity relative to hydrocortisone and hydrocortisone 21-acetate. Format: functional.
Take `CC(=O)OCC(=O)[C@@]1(O)CCC2C3CCC4=CC(=O)C=CC4(C)[C@@]3(F)C(O)CC21C` (stereo not given in full): the Potency is 14.

Compound `CC(=O)OCC(=O)[C@@]1(O)CCC2C3C[C@H](F)C4=CC(=O)C=CC4(C)C3C(O)CC21C` (stereo not given in full) registered a Potency of 20.

`C[C@H]1C[C@H]2[C@@H]3CCC4=CC(=O)C=C[C@]4(C)[C@H]3[C@@H](O)C[C@]2(C)[C@@]1(O)C(=O)CO` returned a Potency of 23.

In turn, `CC(=O)OCC(=O)C1CCC2C3CCC4=CC(=O)[C@H](C)CC4(C)C3C(O)=CC12C` (stereo not given in full) gave a Potency of less than 0.01.

`CC(=O)OCC(=O)C1CCC2C3CCC4=CC(=O)CCC4(C)C3C(O)=CC12C` (stereo not given) had a Potency of 0.2.

`CC(=O)OCC(=O)[C@@]12OC(C)(C)O[C@@H]1CC1C3C[C@H](F)C4=CC(=O)CCC4(C)C3C(O)CC12C` (stereo not given in full): the Potency stood at 4.

`CC(=O)OCC(=O)[C@@]1(O)[C@H](C)CC2C3C[C@H](F)C4=CC(=O)CCC4(C)C3C(O)CC21C` (stereo not given in full) returned a Potency of 5.

In turn, `CC(=O)OCC(=O)[C@@]1(O)CCC2C3C[C@H](F)C4=CC(=O)CCC4(C)[C@@]3(F)C(O)CC21C` (stereo not given in full) displayed a Potency of 50.

The compound `C[C@@H]1C[C@H]2[C@@H]3CCC4=CC(=O)C=C[C@]4(C)[C@H]3[C@@H](O)C[C@]2(C)[C@@]1(O)C(=O)CO` showed a Potency of 11.3.

As for `CC(=O)OCC(=O)[C@@]1(O)[C@H](C)CC2C3C[C@H](F)C4=CC(=O)CCC4(C)[C@@]3(F)C(O)CC21C` (stereo not given in full), the Potency is listed as 50.

Regarding `CC1(C)O[C@@H]2CC3C4C[C@H](F)C5=CC(=O)CCC5(C)[C@@]4(F)C(O)CC3(C)[C@]2(C(=O)CO)O1` (stereo not given in full), the Potency amounted to 103.

The compound `CC(=O)OCC(=O)[C@@]1(O)CCC2C3C[C@H](F)C4=CC(=O)CCC4(C)C3C(O)CC21C` (stereo not given in full) registered a Potency of 10.

Consider `C[C@H]1C[C@@H]2[C@H]([C@@H](O)C[C@@]3(C)[C@H]2CC[C@]3(O)C(=O)CO)[C@@]2(C)C=CC(=O)C=C12` (stereo in doubt; 68) [METHYLPREDNISOLONE], for which the Potency is 200.

For the compound `CC(=O)OCC(=O)[C@@]1(O)CCC2C3CCC4=CC(=O)C=CC4(C)[C@@]3(Cl)[C@@H](Cl)CC21C` (stereo not given in full), the Potency is listed as 0.5.

`C[C@]12CCC(=O)C=C1CC[C@@H]1[C@@H]2C(=O)C[C@@]2(C)[C@H]1CC[C@]2(O)C(=O)CO` [CORTISONE] returned a Potency of 0.4.

Take `CC(=O)OCC(=O)C1CCC2C3CCC4=CC(=O)CCC4(C)[C@@]3(F)C(O)CC12C` (stereo not given in full): the Potency is given as 2.7.

Turning to `C[C@H]1CC2C3CCC4=CC(=O)CCC4(C)C3C(=O)CC2(C)[C@@]1(O)C(=O)CO` (stereo not given in full), the Potency worked out at 2.

Take `C[C@@H]1CC2C3C[C@H](C)C4=CC(=O)C=CC4(C)[C@@]3(F)C(O)CC2(C)[C@@]1(O)C(=O)CO` (stereo not given in full): the Potency was found to be 200.

`CC12C=CC(=O)C=C1CCC1C3CC[C@](O)(C(=O)CO)C3(C)CC(O)[C@@]12F` (stereo not given in full) displayed a Potency of 17.7.

The compound `CC(=O)OCC(=O)[C@@]1(O)[C@H](C)CC2C3C[C@H](F)C4=CC(=O)C=CC4(C)[C@@]3(F)C(O)CC21C` (stereo not given in full) had a Potency of 120.

Compound `C[C@H]1CC2C3CCC4=CC(=O)CCC4(C)C3C(O)CC2(C)[C@@]1(O)C(=O)CO` (stereo not given in full) came in with a Potency of 4.

With `CC12C=CC(=O)C=C1[C@@H](Cl)CC1C3CC(O)[C@](O)(C(=O)CO)C3(C)CC(O)[C@@]12F` (stereo not given in full), the Potency is given as 400.

In turn, `CC(=O)OCC(=O)[C@@]1(O)CCC2C3C[C@H](Cl)C4=CC(=O)C=CC4(C)[C@@]3(F)C(O)CC21C` (stereo not given in full) gave a Potency of 27.

With `C[C@@H]1CC2C3CCC4=CC(=O)CCC4(C)[C@@]3(F)C(O)CC2(C)[C@@]1(O)C(=O)CO` (stereo not given in full), the Potency came out at 36.

The compound `CC(=O)OCC(=O)[C@@]1(O)CCC2C3C[C@H](F)C4=CC(=O)CCC4(C)C3C(=O)CC21C` (stereo not given in full) had a Potency of 10.

Regarding `C[C@@H]1CC2C3CCC4=CC(=O)C=CC4(C)[C@@]3(F)C(O)=CC2(C)[C@@]1(O)C(=O)CO` (stereo not given in full), the Potency is recorded as 140.

In turn, `CC(=O)OCC(=O)[C@@]1(O)CCC2C3C[C@H](Cl)C4=CC(=O)C=CC4(C)C3C(=O)CC21C` (stereo not given in full) gave a Potency of 4.

Take `CC(=O)OCC(=O)[C@@]1(O)CCC2C3CCC4=CC(=O)[C@H](C)CC4(C)C3C(O)CC21C` (stereo not given in full): the Potency is listed as 4.5.

As for `C[C@H]1CC2C3CCC4=CC(=O)C=CC4(C)C3C(=O)CC2(C)[C@@]1(O)C(=O)CO` (stereo not given in full), the Potency was determined as 26.

Compound `CC(=O)OCC(=O)[C@@]12OC(C)(C)O[C@@H]1CC1C3C[C@H](F)C4=CC(=O)C=CC4(C)C3C(O)CC12C` (stereo not given in full) registered a Potency of 20.

`CC12C=CC(=O)C=C1[C@@H](Cl)CC1C2C(O)CC2(C)C1CC[C@]2(O)C(=O)CO` (stereo not given in full) showed a Potency of 14.

For the compound `CC(=O)OCC(=O)[C@@]1(O)CCC2C3C[C@H](Cl)C4=CC(=O)CCC4(C)[C@@]3(F)C(O)CC21C` (stereo not given in full), the Potency was determined as 11.

`C[C@H]1CC2C3CCC4=CC(=O)CCC4(C)[C@@]3(F)C(O)CC2(C)[C@@]1(O)C(=O)CO` (stereo not given in full) gave a Potency of 23.

Take `CC(=O)OCC(=O)[C@@]1(O)CCC2C3C[C@H](F)C4=CC(=O)C=CC4(C)C3C(=O)CC21C` (stereo not given in full): the Potency was determined as 20.

Take `CC(=O)OCC(=O)C1CCC2C3CCC4=CC(=O)CCC4(C)C3C(O)CC12C` (stereo not given): the Potency was 0.3.

For `C[C@@H]1CC2C3CCC4=CC(=O)C=CC4(C)C3C(=O)CC2(C)[C@@]1(O)C(=O)CO` (stereo not given in full), the Potency is recorded as 13.

As for `CC(=O)OCC(=O)[C@@]1(O)CCC2C3CCC4=CC(=O)CCC4(C)[C@@]3(F)C(=O)CC21C` (stereo not given in full), the Potency was 10.

`CC(=O)OCC(=O)[C@@]1(O)CCC2C3C[C@H](F)C4=CC(=O)C=CC4(C)[C@@]3(F)C(O)CC21C` (stereo not given in full) had a Potency of 200.

With `CC(=O)OCC(=O)[C@@]1(O)CC[C@H]2[C@@H]3CCC4=CC(=O)C=C[C@]4(C)[C@H]3C(=O)C[C@@]21C`, the Potency is on record as 1.

The species entered for a further test is Homo sapiens. Kind of test: Potency relative to fluocinolone 16,17-acetonide in the human vasoconstictor test. Format: functional.
`C[C@]12C=CC(=O)C=C1[C@@H](F)C[C@@H]1[C@@H]2[C@@H](O)C[C@@]2(C)[C@H]1CC[C@]2(O)C(=O)CO` [FLUPREDNISOLONE] came in with a Potency of 1.

`CCCCC(=O)O[C@]1(C(=O)COC(C)=O)CC[C@H]2[C@@H]3C[C@H](F)C4=CC(=O)CC[C@]4(C)[C@@]3(F)[C@@H](O)C[C@@]21C` registered a Potency of 360.

The compound `CCCC(=O)OCC(=O)[C@@]1(OC(=O)CCC)CC[C@H]2[C@@H]3C[C@H](F)C4=CC(=O)C=C[C@]4(C)[C@@]3(F)[C@@H](O)C[C@@]21C` registered a Potency of 540.

`CCCC(=O)O[C@]1(C(=O)CO)C(C)CC2C3CCC4=CC(=O)C=CC4(C)[C@@]3(F)C(O)CC21C` (stereo not given in full) displayed a Potency of 168.

`CCCCC(=O)O[C@]1(C(=O)O)[C@@H](C)CC2C3CCC4=CC(=O)C=CC4(C)C3(F)[C@@H](O)CC21C` (stereo not given in full) yielded a Potency of less than 1.

`CC(=O)O[C@]1(C(=O)O)[C@@H](C)CC2C3CCC4=CC(=O)C=CC4(C)C3(F)[C@@H](O)CC21C` (stereo not given in full) came in with a Potency of less than 1.

For `CCC(=O)O[C@]1(C(C)=O)CCC2C3C[C@H](F)C4=CC(=O)C=CC4(C)[C@@]3(F)C(O)CC21C` (stereo not given in full), the Potency was determined as 900.

The compound `C[C@@H]1C[C@H]2[C@@H]3C[C@H](F)C4=CC(=O)C=C[C@]4(C)[C@@]3(F)[C@@H](O)C[C@]2(C)[C@@]1(O)C(=O)COC(=O)C(C)(C)C` [FLUMETHASONE PIVALATE] came in with a Potency of 360.

Take `CCCC(=O)OCC(=O)[C@@]1(O)C(C)CC2C3CCC4=CC(=O)C=CC4(C)[C@@]3(F)C(O)CC21C` (stereo not given in full): the Potency was found to be 85.

`CC12CCC(=O)C=C1CCC1C2C(O)CC2(C)C1CC[C@]2(O)C(=O)COP(=O)(O)O` (stereo not given in full) had a Potency of 0.01.

`CC(C)C(=O)OC1(C(=O)CCl)[C@@H](C)CC2C3CCC4=CC(=O)C=CC4(C)[C@]3(F)[C@@H](O)CC21C` (stereo not given in full) yielded a Potency of 378.

On to `CC(=O)O[C@]1(C(=O)CCl)[C@@H](C)CC2C3CCC4=CC(=O)C=CC4(C)[C@@]3(F)[C@@H](O)CC21C` (stereo not given in full), for which the Potency is given as 812.

Take `CC(=O)[C@@]1(O)CCC2C3CCC4=CC(=O)CCC4(C)C3C(O)CC21C` (stereo not given in full): the Potency is on record as 0.4.

Compound `CCCCC(=O)O[C@]1(C(=O)CO)CCC2C3CCC4=CC(=O)C=CC4(C)C3C(O)CC21C` (stereo not given in full) registered a Potency of less than 1.

Turning to `CC(=O)OCC(=O)[C@@]1(O)[C@@H](C)C[C@H]2[C@@H]3CCC4=CC(=O)C=C[C@]4(C)[C@@]3(F)[C@@H](O)C[C@@]21C` [BETAMETHASONE ACETATE], the Potency is given as 18.

`CCC(=O)O[C@]1(C(=O)COC(=O)C(C)(C)C)CCC2C3C[C@H](F)C4=CC(=O)C=CC4(C)[C@@]3(F)C(O)CC21C` (stereo not given in full) yielded a Potency of 720.

`CCCC(=O)OCC(=O)[C@@]1(OC(=O)CC)CCC2C3C[C@H](F)C4=CC(=O)C=CC4(C)[C@@]3(F)C(O)CC21C` (stereo not given in full) came in with a Potency of 1260.

The compound `CCCC(=O)O[C@]1(C(=O)OC)[C@@H](C)CC2C3CCC4=CC(=O)C=CC4(C)[C@@]3(F)[C@@H](O)CC21C` (stereo not given in full) gave a Potency of 175.

`CCC(=O)OCC(=O)[C@@]1(OC(=O)CC)[C@@H](C)C[C@H]2[C@@H]3CCC4=CC(=O)C=C[C@]4(C)[C@@]3(F)[C@@H](O)C[C@@]21C` [BETAMETHASONE DIPROPIONATE] gave a Potency of 1300.

Compound `CC(=O)O[C@]1(C(=O)COC(=O)C(C)C)CCC2C3C[C@H](F)C4=CC(=O)C=CC4(C)[C@@]3(F)C(O)CC21C` (stereo not given in full) returned a Potency of 720.

`CCC(=O)OCC(=O)[C@@]1(O)[C@@H](C)C[C@H]2[C@@H]3CCC4=CC(=O)C=C[C@]4(C)[C@@]3(F)[C@@H](O)C[C@@]21C`: the Potency turned out to be 40.

`CC(C)C(=O)O[C@]1(C(=O)CO)CCC2C3C[C@H](F)C4=CC(=O)C=CC4(C)[C@@]3(F)C(O)CC21C` (stereo not given in full) registered a Potency of less than 360.

The compound `CCCC(=O)O[C@]1(C(=O)OCC)[C@@H](C)CC2C3CCC4=CC(=O)C=CC4(C)C3(F)[C@@H](O)CC21C` (stereo not given in full) displayed a Potency of 40.

The compound `CCC(=O)O[C@]1(C(=O)O)[C@@H](C)CC2C3CCC4=CC(=O)C=CC4(C)C3(F)[C@@H](O)CC21C` (stereo not given in full) registered a Potency of less than 1.

In turn, `CCC(=O)O[C@]1(C(C)=O)C(C)CC2C3CCC4=CC(=O)C=CC4(C)[C@@]3(F)C(O)CC21C` (stereo not given in full) displayed a Potency of 1170.

The compound `CCCCC(=O)O[C@]1(C(=O)CCl)[C@@H](C)C[C@H]2[C@@H]3CCC4=CC(=O)C=C[C@]4(C)[C@@]3(F)[C@@H](O)C[C@@]21C` showed a Potency of 91.
